Measurements: ChEMBL document CHEMBL4507267 (2021)

Assays:
[1] = biological target: Cyclin-dependent kinase 17 (Homo sapiens) (UniProt Q00537); conditions: Compound concentration 1000.0 nM
[2] = biological target: MAP/microtubule affinity-regulating kinase 3 (Homo sapiens) (UniProt P27448); conditions: Compound concentration 1000.0 nM
[3] = biological target: cAMP-dependent protein kinase catalytic subunit beta (Homo sapiens) (UniProt P22694); conditions: Compound concentration 1000.0 nM
[4] = system: Mast/stem cell growth factor receptor Kit (Homo sapiens), P10721 [L576P]; conditions: Compound concentration 1000.0 nM
[5] = biological target: Phosphatidylinositol 4-kinase beta (Homo sapiens) (UniProt Q9UBF8); conditions: Compound concentration 1000.0 nM
[6] = biological target: 5-hydroxytryptamine receptor 1A (Homo sapiens) (UniProt P08908); conditions: Compound concentration 10.0 uM
[7] = biological target: Phosphatidylinositol 4-phosphate 5-kinase type-1 alpha (Homo sapiens) (UniProt Q99755); conditions: Compound concentration 1000.0 nM
[8] = biological target: Mitogen-activated protein kinase kinase kinase 15 (Homo sapiens) (UniProt Q6ZN16); conditions: Compound concentration 1000.0 nM
[9] = biological target: Ribosomal protein S6 kinase alpha-2 (Homo sapiens) (UniProt Q15349); conditions: Compound concentration 1000.0 nM
Ribosomal protein S6 kinase alpha-2 (Homo sapiens), sequence (Q15349 whole entry): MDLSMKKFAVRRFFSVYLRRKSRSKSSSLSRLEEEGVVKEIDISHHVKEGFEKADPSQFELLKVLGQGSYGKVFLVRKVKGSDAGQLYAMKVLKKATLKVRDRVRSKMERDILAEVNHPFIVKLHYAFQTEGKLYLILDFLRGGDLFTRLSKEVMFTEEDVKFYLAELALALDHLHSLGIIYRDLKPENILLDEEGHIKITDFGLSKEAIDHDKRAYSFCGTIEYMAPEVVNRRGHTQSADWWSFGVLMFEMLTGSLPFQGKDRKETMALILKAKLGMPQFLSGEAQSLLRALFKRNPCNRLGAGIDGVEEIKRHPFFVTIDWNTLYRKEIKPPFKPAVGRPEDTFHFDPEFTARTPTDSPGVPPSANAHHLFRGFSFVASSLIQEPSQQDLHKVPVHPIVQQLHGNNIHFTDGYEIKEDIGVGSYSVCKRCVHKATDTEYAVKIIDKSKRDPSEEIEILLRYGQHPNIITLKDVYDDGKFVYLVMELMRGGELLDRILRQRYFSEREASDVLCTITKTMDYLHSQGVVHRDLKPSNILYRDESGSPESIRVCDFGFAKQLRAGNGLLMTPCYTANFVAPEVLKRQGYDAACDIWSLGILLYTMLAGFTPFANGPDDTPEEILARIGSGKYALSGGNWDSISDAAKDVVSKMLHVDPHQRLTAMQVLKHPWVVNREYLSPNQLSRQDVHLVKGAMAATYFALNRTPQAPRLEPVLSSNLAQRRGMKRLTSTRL

[10] = biological target: Cyclin-dependent kinase 11A (Homo sapiens) (UniProt Q9UQ88); conditions: Compound concentration 1000.0 nM
[11] = biological target: Muscle, skeletal receptor tyrosine-protein kinase (Homo sapiens) (UniProt O15146); conditions: Compound concentration 1000.0 nM
[12] = biological target: Activin receptor type-1B (Homo sapiens) (UniProt P36896); conditions: Compound concentration 1000.0 nM
[13] = biological target: Ribosomal protein S6 kinase alpha-2 (Homo sapiens) (UniProt Q15349); conditions: Compound concentration 1000.0 nM; remark: listed apart in the source
[14] = biological target: TGF-beta receptor type-1 (Homo sapiens) (UniProt P36897); conditions: Compound concentration 1000.0 nM
[15] = biological target: Dual serine/threonine and tyrosine protein kinase (Homo sapiens) (UniProt Q6XUX3); conditions: Compound concentration 1000.0 nM
[16] = biological target: Casein kinase I isoform alpha-like (Homo sapiens) (UniProt Q8N752); conditions: Compound concentration 1000.0 nM
Casein kinase I isoform alpha-like (Homo sapiens), sequence (Q8N752 whole entry, canonical isoform): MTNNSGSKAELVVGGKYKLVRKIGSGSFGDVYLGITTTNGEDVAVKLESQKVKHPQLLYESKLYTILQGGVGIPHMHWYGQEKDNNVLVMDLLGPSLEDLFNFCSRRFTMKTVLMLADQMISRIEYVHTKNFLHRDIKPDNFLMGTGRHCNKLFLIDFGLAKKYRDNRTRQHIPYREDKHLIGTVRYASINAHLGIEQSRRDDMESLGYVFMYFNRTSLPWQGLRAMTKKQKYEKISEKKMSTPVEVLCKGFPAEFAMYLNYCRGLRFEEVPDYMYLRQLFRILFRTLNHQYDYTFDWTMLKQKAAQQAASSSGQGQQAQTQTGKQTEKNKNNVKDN

[17] = biological target: Dual specificity tyrosine-phosphorylation-regulated kinase 2 (Homo sapiens) (UniProt Q92630); conditions: Compound concentration 1000.0 nM
[18] = biological target: Dual specificity protein kinase CLK4 (Homo sapiens) (UniProt Q9HAZ1); conditions: Compound concentration 1000.0 nM
[19] = system: Tyrosine-protein kinase ABL1 (Homo sapiens), P00519 [E255K]; conditions: Compound concentration 1000.0 nM
[20] = biological target: Dual specificity testis-specific protein kinase 1 (Homo sapiens) (UniProt Q15569); conditions: Compound concentration 1000.0 nM
Dual specificity testis-specific protein kinase 1 (Homo sapiens), sequence (Q15569 whole entry, looked up): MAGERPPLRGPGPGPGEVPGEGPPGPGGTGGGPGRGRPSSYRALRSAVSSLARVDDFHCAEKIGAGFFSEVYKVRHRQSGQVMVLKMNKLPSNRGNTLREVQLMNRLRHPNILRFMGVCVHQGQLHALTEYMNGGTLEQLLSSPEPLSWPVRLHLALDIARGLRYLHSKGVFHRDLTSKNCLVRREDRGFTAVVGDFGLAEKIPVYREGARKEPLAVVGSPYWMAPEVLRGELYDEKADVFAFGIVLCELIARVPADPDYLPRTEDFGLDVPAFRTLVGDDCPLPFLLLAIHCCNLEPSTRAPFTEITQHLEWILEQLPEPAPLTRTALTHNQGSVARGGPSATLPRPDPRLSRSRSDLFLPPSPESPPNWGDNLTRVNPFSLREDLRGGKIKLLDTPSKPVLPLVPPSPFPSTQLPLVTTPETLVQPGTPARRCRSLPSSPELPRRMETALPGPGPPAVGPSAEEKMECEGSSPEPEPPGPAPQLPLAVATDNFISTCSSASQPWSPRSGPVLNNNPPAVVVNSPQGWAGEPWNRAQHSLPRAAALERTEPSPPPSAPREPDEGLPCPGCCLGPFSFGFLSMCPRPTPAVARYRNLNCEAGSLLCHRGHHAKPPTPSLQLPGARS

[21] = biological target: Serine/threonine-protein kinase pim-1 (Homo sapiens) (UniProt P11309); conditions: Compound concentration 1000.0 nM
[22] = biological target: 3-phosphoinositide-dependent protein kinase 1 (Homo sapiens) (UniProt O15530); conditions: Compound concentration 1000.0 nM
3-phosphoinositide-dependent protein kinase 1 (Homo sapiens), sequence (O15530 whole entry): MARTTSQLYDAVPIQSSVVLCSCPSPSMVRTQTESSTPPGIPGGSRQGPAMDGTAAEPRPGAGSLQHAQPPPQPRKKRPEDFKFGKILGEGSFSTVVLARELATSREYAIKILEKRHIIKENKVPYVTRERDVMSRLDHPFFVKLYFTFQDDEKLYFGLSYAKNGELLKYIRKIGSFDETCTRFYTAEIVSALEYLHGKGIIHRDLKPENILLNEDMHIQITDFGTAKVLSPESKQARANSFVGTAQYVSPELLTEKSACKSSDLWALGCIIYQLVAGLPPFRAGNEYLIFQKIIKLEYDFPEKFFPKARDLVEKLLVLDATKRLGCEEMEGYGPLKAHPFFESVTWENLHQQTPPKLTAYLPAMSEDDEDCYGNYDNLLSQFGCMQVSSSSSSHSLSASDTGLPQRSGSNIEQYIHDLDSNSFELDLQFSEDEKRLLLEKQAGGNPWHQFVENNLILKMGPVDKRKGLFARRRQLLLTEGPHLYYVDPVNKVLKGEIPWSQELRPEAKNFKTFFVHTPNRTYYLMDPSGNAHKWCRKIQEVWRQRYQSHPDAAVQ

[23] = biological target: Kappa-type opioid receptor (Homo sapiens) (UniProt P41145); conditions: Compound concentration 10.0 uM
[24] = biological target: Insulin receptor (Homo sapiens) (UniProt P06213); conditions: Compound concentration 1000.0 nM
[25] = biological target: Cyclin-dependent kinase 15 (Homo sapiens) (UniProt Q96Q40); conditions: Compound concentration 1000.0 nM
[26] = biological target: Homeodomain-interacting protein kinase 3 (Homo sapiens) (UniProt Q9H422); conditions: Compound concentration 1000.0 nM
[27] = biological target: Cyclin-dependent kinase 14 (Homo sapiens) (UniProt O94921); conditions: Compound concentration 1000.0 nM
[28] = biological target: Ribosomal protein S6 kinase alpha-4 (Homo sapiens) (UniProt O75676); conditions: Compound concentration 1000.0 nM
[29] = biological target: Proto-oncogene tyrosine-protein kinase ROS (Homo sapiens) (UniProt P08922); conditions: Compound concentration 1000.0 nM
[30] = biological target: Calcium/calmodulin-dependent protein kinase type 1 (Homo sapiens) (UniProt Q14012); conditions: Compound concentration 1000.0 nM
[31] = biological target: Serine/threonine-protein kinase B-raf (Homo sapiens) (UniProt P15056); conditions: Compound concentration 1000.0 nM
[32] = biological target: Mast/stem cell growth factor receptor Kit (Homo sapiens) (UniProt P10721); conditions: Compound concentration 1000.0 nM
[33] = biological target: Serine/threonine-protein kinase 17B (Homo sapiens) (UniProt O94768); conditions: Compound concentration 1000.0 nM
[34] = biological target: Hormonally up-regulated neu tumor-associated kinase (Homo sapiens) (UniProt P57058); conditions: Compound concentration 1000.0 nM
[35] = biological target: Focal adhesion kinase 1 (Homo sapiens) (UniProt Q05397); conditions: Compound concentration 1000.0 nM
[36] = biological target: Wee1-like protein kinase 2 (Homo sapiens) (UniProt P0C1S8); conditions: Compound concentration 1000.0 nM
[37] = biological target: Proto-oncogene tyrosine-protein kinase receptor Ret (Homo sapiens) (UniProt P07949); conditions: Compound concentration 1000.0 nM
[38] = biological target: Cyclin-dependent kinase-like 5 (Homo sapiens) (UniProt O76039); conditions: Compound concentration 1000.0 nM
[39] = biological target: Microtubule-associated serine/threonine-protein kinase 1 (Homo sapiens) (UniProt Q9Y2H9); conditions: Compound concentration 1000.0 nM
Microtubule-associated serine/threonine-protein kinase 1 (Homo sapiens), sequence (Q9Y2H9 whole entry, looked up): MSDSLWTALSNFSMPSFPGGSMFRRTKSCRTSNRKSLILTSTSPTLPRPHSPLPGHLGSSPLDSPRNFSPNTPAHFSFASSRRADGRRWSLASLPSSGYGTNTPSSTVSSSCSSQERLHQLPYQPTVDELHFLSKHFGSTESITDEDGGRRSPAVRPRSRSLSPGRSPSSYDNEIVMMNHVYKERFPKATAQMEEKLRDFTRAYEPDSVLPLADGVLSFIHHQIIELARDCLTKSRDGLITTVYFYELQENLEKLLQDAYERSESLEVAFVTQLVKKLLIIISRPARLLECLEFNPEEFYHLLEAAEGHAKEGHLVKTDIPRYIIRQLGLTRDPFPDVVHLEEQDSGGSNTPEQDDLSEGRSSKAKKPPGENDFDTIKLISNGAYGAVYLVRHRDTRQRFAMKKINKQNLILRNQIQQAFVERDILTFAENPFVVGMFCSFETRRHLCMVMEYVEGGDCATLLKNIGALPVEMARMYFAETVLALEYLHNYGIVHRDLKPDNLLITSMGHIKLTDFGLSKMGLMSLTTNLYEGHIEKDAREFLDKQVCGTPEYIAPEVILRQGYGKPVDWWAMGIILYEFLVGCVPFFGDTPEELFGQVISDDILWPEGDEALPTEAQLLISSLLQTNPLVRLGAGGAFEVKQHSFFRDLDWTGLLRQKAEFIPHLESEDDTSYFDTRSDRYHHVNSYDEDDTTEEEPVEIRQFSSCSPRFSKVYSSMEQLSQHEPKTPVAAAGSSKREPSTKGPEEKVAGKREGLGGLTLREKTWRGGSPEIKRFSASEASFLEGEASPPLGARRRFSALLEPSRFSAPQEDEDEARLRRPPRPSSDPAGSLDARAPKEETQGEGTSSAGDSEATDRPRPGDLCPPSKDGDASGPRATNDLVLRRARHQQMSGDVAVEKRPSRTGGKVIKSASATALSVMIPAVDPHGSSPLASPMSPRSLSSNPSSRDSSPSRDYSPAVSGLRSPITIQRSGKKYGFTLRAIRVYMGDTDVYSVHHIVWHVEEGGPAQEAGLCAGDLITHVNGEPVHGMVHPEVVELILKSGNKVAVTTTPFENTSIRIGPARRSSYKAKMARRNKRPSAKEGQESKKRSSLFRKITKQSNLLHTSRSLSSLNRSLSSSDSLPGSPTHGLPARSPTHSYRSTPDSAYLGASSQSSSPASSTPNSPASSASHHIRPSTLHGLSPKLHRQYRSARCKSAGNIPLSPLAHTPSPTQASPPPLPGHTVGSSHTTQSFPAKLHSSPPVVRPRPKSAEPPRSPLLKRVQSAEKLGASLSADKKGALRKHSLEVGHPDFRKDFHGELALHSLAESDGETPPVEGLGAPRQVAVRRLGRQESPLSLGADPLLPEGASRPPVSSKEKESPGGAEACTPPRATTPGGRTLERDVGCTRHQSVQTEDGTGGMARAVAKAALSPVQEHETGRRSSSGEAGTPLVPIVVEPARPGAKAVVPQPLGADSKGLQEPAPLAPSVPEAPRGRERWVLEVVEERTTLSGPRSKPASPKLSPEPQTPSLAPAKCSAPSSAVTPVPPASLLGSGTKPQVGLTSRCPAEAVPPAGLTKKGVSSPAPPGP

[40] = system: Tyrosine-protein kinase ABL1 (Homo sapiens), P00519 [M351T]; conditions: Compound concentration 1000.0 nM
[41] = biological target: Alpha-2B adrenergic receptor (Homo sapiens) (UniProt P18089); conditions: Compound concentration 10.0 uM
Alpha-2B adrenergic receptor (Homo sapiens), sequence (P18089 whole entry): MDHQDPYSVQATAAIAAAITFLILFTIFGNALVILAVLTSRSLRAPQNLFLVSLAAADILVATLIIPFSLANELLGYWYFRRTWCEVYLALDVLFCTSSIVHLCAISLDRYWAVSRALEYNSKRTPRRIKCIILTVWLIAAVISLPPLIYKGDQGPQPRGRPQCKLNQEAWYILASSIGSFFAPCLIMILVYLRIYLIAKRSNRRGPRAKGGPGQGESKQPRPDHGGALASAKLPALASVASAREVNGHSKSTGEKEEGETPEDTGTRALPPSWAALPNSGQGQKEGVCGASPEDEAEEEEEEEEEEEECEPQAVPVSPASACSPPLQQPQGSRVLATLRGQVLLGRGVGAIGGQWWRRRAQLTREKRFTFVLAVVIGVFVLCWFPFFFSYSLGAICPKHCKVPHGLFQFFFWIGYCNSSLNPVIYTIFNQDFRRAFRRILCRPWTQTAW

[42] = system: Fibroblast growth factor receptor 3 (Homo sapiens), P22607 [G697C]; conditions: Compound concentration 1000.0 nM
[43] = biological target: Serine/threonine-protein kinase PAK 3 (Homo sapiens) (UniProt O75914); conditions: Compound concentration 1000.0 nM
[44] = biological target: Mu-type opioid receptor (Homo sapiens) (UniProt P35372); conditions: Compound concentration 10.0 uM
[45] = biological target: Serine/threonine-protein kinase RIO1 (Homo sapiens) (UniProt Q9BRS2); conditions: Compound concentration 1000.0 nM
[46] = biological target: Alpha-1D adrenergic receptor (Homo sapiens) (UniProt P25100); conditions: Compound concentration 10.0 uM

MAP/microtubule affinity-regulating kinase 3 (Homo sapiens), sequence (P27448 whole entry, looked up): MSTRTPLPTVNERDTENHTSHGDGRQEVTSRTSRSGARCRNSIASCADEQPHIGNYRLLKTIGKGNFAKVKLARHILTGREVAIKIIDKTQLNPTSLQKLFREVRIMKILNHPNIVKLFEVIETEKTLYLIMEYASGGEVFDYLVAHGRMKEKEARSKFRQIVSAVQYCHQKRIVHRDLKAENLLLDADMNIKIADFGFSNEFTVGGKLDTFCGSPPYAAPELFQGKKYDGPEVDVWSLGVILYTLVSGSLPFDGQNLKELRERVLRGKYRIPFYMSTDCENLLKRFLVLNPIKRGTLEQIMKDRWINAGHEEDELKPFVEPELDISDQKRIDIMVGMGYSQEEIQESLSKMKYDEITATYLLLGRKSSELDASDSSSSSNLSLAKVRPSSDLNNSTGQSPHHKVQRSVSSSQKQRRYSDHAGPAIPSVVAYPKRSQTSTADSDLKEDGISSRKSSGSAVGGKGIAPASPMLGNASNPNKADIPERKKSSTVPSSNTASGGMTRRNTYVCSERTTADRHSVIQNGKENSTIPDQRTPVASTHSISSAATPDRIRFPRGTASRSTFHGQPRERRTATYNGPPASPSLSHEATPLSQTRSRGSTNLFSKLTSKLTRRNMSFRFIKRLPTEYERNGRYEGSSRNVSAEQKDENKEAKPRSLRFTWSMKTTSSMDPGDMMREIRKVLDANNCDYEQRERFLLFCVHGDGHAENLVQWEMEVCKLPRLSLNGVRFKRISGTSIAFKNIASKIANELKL

Cc1c(NC(=O)c2cc(C(N)=O)nc3cc(F)ccc23)c(C(F)(F)F)nn1Cc1ccc(C(C)(C)C)cc1 [BAY-588]
inactive: residual activity [1] 100% | residual activity [2] 100% | residual activity [3] 100% | residual activity [4] 95% | residual activity [5] 72% | inhibition [6] 18.6% | residual activity [7] 100% | residual activity [8] 95% | residual activity [9] 100% | residual activity [10] 94% | residual activity [11] 97% | residual activity [12] 80% | residual activity [13] 100% | residual activity [14] 91% | residual activity [15] 89% | residual activity [16] 93% | residual activity [17] 88% | residual activity [18] 100% | residual activity [19] 100% | residual activity [20] 100% | residual activity [21] 100% | residual activity [22] 94% | inhibition [23] 22.1% | residual activity [24] 100% | residual activity [25] 100% | residual activity [26] 100% | residual activity [27] 94% | residual activity [28] 92% | residual activity [29] 100% | residual activity [30] 82% | residual activity [31] 81% | residual activity [32] 100% | residual activity [33] 100% | residual activity [34] 100% | residual activity [35] 100% | residual activity [36] 96% | residual activity [37] 100% | residual activity [38] 100% | residual activity [39] 100% | residual activity [40] 100% | inhibition [41] 15.6% | residual activity [42] 97% | residual activity [43] 100% | inhibition [44] 4.84% | residual activity [45] 93% | inhibition [46] 2.92%

Cc1c(NC(=O)c2cc(C(N)=O)nc3cc(F)ccc23)c(C(F)(F)F)nn1Cc1ccc(C#N)cc1 [BAY-876]
inactive: residual activity [1] 92% | residual activity [2] 100% | residual activity [3] 93% | residual activity [4] 92% | residual activity [5] 77% | inhibition [6] -3.47% | residual activity [7] 100% | residual activity [8] 100% | residual activity [9] 85% | residual activity [10] 100% | residual activity [11] 95% | residual activity [12] 80% | residual activity [13] 86% | residual activity [14] 80% | residual activity [15] 78% | residual activity [16] 100% | residual activity [17] 88% | residual activity [18] 87% | residual activity [19] 76% | residual activity [20] 93% | residual activity [21] 86% | residual activity [22] 73% | inhibition [23] -6.9% | residual activity [24] 100% | residual activity [25] 100% | residual activity [26] 85% | residual activity [27] 100% | residual activity [28] 100% | residual activity [29] 99% | residual activity [30] 100% | residual activity [31] 91% | residual activity [32] 72% | residual activity [33] 72% | residual activity [34] 77% | residual activity [35] 96% | residual activity [36] 100% | residual activity [37] 94% | residual activity [38] 77% | residual activity [39] 77% | residual activity [40] 87% | inhibition [41] 7.66% | residual activity [42] 89% | residual activity [43] 76% | inhibition [44] 6.68% | residual activity [45] 93% | inhibition [46] 7.36%
